From ChEMBL document CHEMBL4732263 (Bioorg Med Chem, 2021)
In brackets after ≈: the same amount, converted by molar mass. Each block holds one molecule with its values, some of them ahead of it.

Tests used:
physchem [1] = conditions: PBS, pH 6.5, pH 6.5
in vitro [2] = conditions: human, liver microsomes
physchem [3] = conditions: octanol/water, pH 7.4
in vitro [4] = conditions: human, liver microsomes; remark: listed apart in the source
[5] = mouse, microsomes, 1 h, 1 µM
in vitro [6] = conditions: mouse, liver microsomes
in vitro [7] = conditions: mouse, liver microsomes; remark: listed apart in the source
[8] = human, microsomes, 1 h, 1 µM
physchem [9] = conditions: HCl, pH 2, pH 2
in vitro [10] = conditions: human, Caco-2
in vitro [11] = conditions: human, Caco-2; remark: listed apart in the source
in vitro [12] = conditions: human, Caco-2; remark: listed apart in the source
[13] = octanol/water, pH 7.4
[14] = Plasma clearance in Balb/C mouse at 1.9 mg/kg, iv up to 24 hrs by LC-MS analysis; type: ADME, organism-based
[15] = Clearance in Sprague-Dawley rat renal blood at 2.9 mg/kg, iv up to 24 hrs by LC-MS analysis; type: ADME, organism-based; conditions: whole blood
[16] = Half life in Sprague-Dawley rat at 2.9 mg/kg, iv up to 24 hrs by LC-MS analysis; type: ADME, organism-based; conditions: in vivo
in vitro [17] = conditions: Balb/C, mouse, plasma; at 1 µg/mL
[18] = AUC(0 to infinity) in Balb/C mouse plasma at 1.9 mg/kg, iv up to 24 hrs by LC-MS analysis; type: ADME, organism-based; design: route intravenous, dose 1.9 mg/kg, time <=24
[19] = biological target: Voltage-gated inwardly rectifying potassium channel KCNH2 (Homo sapiens, UniProt Q12809)
Sequence of Voltage-gated inwardly rectifying potassium channel KCNH2 (Q12809 whole entry): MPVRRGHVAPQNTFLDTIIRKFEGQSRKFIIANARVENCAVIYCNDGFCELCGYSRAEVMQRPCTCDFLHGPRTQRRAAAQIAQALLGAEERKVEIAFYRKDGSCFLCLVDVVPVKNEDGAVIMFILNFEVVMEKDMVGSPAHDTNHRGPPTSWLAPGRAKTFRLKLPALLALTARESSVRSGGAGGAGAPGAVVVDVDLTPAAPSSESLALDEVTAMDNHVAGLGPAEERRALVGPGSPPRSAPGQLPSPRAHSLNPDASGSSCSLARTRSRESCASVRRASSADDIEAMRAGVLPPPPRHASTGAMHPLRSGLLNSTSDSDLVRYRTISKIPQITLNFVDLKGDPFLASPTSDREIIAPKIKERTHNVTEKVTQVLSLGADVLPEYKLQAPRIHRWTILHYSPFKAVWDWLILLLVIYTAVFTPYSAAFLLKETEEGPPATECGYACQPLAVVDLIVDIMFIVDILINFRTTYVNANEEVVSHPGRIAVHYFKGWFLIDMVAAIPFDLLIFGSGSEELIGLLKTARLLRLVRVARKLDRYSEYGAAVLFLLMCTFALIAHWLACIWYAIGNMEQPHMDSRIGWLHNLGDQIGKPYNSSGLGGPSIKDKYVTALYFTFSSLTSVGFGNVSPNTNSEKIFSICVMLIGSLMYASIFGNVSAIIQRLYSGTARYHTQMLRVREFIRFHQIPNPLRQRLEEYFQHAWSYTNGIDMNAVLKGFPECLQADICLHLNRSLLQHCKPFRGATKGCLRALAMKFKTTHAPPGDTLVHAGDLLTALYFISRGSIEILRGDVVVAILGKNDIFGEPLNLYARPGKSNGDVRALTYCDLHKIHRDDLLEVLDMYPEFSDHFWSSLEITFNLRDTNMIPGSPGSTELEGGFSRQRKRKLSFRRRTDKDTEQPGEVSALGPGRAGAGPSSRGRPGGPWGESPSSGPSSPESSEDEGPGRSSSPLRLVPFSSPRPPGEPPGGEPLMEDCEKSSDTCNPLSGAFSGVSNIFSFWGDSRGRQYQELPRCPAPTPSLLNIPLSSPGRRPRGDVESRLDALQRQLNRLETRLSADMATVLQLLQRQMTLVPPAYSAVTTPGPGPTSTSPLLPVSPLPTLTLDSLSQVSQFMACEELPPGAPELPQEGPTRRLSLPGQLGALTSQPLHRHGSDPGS

cells = conditions: Homo sapiens, HEK293, 10 min
[20] = Volume of distribution at steady state in Balb/C mouse plasma at 1.9 mg/kg, iv up to 24 hrs by LC-MS analysis; type: ADME, organism-based; conditions: read-out: Vdss
in vitro [21] = conditions: Balb/C, mouse, plasma; at 1 µg/mL; remark: listed apart in the source
[22] = Volume of distribution at steady state in Balb/C mouse blood at 1.9 mg/kg, iv up to 24 hrs by LC-MS analysis; type: ADME, organism-based; conditions: whole blood, read-out: Vdss
[23] = AUC(0 to infinity) in Sprague-Dawley rat plasma at 2.9 mg/kg, iv up to 24 hrs by LC-MS analysis; type: ADME, organism-based; design: route intravenous, dose 2.9 mg/kg, time <=24
[24] = Plasma clearance in Sprague-Dawley rat at 2.9 mg/kg, iv up to 24 hrs by LC-MS analysis; type: ADME, organism-based
[25] = Clearance in Balb/C mouse blood at 1.9 mg/kg, iv up to 24 hrs by LC-MS analysis; type: ADME, organism-based; conditions: whole blood
[26] = Drug excretion in Sprague-Dawley rat urine at 2.9 mg/kg, iv up to 24 hrs by LC-MS analysis; type: ADME, organism-based; conditions: read-out: Drug excretion
[27] = Clearance in Sprague-Dawley rat blood at 2.9 mg/kg, iv up to 24 hrs by LC-MS analysis; type: ADME, organism-based; conditions: whole blood
[28] = Volume of distribution at steady state in Sprague-Dawley rat blood at 2.9 mg/kg, iv up to 24 hrs by LC-MS analysis; type: ADME, organism-based; conditions: whole blood, read-out: Vdss
in vitro [29] = conditions: human, Caco-2; remark: listed apart in the source
[30] = Apparent half life in Balb/C mouse at 1.9 mg/kg, iv up to 24 hrs by LC-MS analysis; type: ADME, organism-based; conditions: in vivo, read-out: t1/2(app) (converted)
in vivo = conditions: Balb/C, mouse, po, at 1.9 to 3.5 mg/kg
in vitro [31] = conditions: human, Caco-2; remark: listed apart in the source
[32] = Volume of distribution at steady state in Sprague-Dawley rat plasma at 2.9 mg/kg, iv up to 24 hrs by LC-MS analysis; type: ADME, organism-based; conditions: read-out: Vdss
[33] = biological target: Sodium channel protein type 5 subunit alpha (Homo sapiens, UniProt Q14524)
Sequence of Sodium channel protein type 5 subunit alpha (Q14524 whole entry): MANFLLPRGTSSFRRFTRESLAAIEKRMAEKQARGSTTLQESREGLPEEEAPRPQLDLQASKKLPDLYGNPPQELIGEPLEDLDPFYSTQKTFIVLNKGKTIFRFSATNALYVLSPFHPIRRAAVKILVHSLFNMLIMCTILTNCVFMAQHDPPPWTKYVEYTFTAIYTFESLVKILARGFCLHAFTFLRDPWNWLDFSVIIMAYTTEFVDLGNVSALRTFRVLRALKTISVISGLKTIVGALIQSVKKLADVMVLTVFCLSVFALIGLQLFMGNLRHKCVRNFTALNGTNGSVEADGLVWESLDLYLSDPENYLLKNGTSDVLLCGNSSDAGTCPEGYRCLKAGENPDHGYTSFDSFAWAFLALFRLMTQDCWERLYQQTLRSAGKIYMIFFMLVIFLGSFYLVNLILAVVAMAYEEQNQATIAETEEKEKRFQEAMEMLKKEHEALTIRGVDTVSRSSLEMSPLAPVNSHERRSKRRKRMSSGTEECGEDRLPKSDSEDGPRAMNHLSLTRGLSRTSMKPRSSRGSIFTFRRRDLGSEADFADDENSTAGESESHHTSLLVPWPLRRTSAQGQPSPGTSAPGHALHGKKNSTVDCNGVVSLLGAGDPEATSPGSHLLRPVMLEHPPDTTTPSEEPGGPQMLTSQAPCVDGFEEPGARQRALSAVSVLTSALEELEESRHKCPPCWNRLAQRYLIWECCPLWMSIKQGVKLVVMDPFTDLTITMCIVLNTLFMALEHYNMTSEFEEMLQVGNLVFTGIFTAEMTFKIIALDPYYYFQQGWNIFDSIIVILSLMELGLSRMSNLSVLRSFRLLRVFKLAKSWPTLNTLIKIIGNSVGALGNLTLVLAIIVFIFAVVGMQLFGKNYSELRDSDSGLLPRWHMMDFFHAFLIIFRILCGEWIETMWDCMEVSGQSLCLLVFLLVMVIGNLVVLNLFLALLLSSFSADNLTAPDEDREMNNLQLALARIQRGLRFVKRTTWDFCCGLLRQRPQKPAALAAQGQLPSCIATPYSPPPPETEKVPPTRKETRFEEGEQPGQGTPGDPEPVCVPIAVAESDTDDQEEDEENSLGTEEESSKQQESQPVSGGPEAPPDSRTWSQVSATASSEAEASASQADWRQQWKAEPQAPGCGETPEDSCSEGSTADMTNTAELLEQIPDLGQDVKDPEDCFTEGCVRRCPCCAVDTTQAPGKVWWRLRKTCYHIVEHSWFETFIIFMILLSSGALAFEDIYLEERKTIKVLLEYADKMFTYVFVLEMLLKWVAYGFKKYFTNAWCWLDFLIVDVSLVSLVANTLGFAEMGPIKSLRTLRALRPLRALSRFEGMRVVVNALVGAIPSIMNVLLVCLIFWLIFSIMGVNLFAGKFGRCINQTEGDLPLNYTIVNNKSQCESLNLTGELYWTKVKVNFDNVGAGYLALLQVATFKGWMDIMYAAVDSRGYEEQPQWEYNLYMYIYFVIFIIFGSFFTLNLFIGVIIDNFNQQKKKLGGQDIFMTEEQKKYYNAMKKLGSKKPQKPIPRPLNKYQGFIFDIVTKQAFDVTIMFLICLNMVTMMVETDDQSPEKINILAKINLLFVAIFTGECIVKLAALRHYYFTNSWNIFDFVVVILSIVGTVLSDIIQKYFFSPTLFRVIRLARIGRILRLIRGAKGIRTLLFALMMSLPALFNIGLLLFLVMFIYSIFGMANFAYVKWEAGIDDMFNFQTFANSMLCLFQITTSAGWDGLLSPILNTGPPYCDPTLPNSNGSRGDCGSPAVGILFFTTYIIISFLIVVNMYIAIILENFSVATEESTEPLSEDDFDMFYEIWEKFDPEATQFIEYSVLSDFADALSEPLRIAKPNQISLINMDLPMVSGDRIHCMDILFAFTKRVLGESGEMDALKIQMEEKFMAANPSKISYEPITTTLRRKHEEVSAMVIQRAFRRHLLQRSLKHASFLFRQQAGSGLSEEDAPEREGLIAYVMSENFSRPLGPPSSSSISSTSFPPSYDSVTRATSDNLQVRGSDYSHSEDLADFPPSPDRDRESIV

[34] = mouse, blood, 2 h; at 1 µg/mL

- solubility kinetic (physchem [1]): 25 µg/mL (≈ 95.7 µM)
- half-life at 1 h, 1 µM (in vitro [2]): 0.583 h
- logD (physchem [3]): 1.4
- microsomal CLint at 1 h, 1 µM (in vitro [4]): 50 µL/min/mg
- CL free [5]: 245 µL/min/mg
- half-life at 1 h, 1 µM (in vitro [6]): 0.128 h
- microsomal CLint at 1 h, 1 µM (in vitro [7]): 224 µL/min/mg
- CL free [8]: 55 µL/min/mg
- solubility kinetic (physchem [9]): > 100 µg/mL
SMILES: N=C(N)NC(=O)c1nc(-c2ccco2)c(N)nc1N

- efflux ratio at 2 h, 20 µM (in vitro [10]): 1.1
- Papp B→A at 2 h, 20 µM (in vitro [11]): 51 ×10⁻⁶ cm/s
- Papp A→B at 2 h, 20 µM (in vitro [12]): 49 ×10⁻⁶ cm/s
SMILES: CC(C)NCC(O)COc1cccc2ccccc12 (stereo not drawn) [PROPRANOLOL]

SMILES: N=C(N)NC(=O)c1nc(-c2cncnc2)c(N2CCCCCC2)nc1N
- solubility kinetic (physchem [1]): 12.5 µg/mL (≈ 35.2 µM)
- half-life at 1 h, 1 µM (in vitro [2]): 1.43 h
- logD [13]: 2.8
- microsomal CLint at 1 h, 1 µM (in vitro [4]): 20 µL/min/mg
- CL free [5]: 27 µL/min/mg
- half-life at 1 h, 1 µM (in vitro [6]): 1.67 h
- microsomal CLint at 1 h, 1 µM (in vitro [7]): 17 µL/min/mg
- CL free [8]: 32 µL/min/mg
- solubility kinetic (physchem [9]): > 100 µg/mL

- solubility kinetic (physchem [1]): 50 µg/mL (≈ 147 µM)
- half-life at 1 h, 1 µM (in vitro [2]): > 4.25 h
- logD (physchem [3]): 2.8
- microsomal CLint at 1 h, 1 µM (in vitro [4]): < 7 µL/min/mg
- CL free [5]: 17 µL/min/mg
- half-life at 1 h, 1 µM (in vitro [6]): 2.55 h
- microsomal CLint at 1 h, 1 µM (in vitro [7]): 11 µL/min/mg
- CL free [8]: 11 µL/min/mg
- solubility kinetic (physchem [9]): > 100 µg/mL
SMILES: N=C(N)NC(=O)c1nc(-c2ccc(C(F)(F)F)cc2)c(N)nc1N

- solubility kinetic (physchem [1]): 12.5 µg/mL (≈ 41.2 µM)
- clearance [14]: 38 mL/min/kg
- CL renal at 24 h [15]: 29.2 mL/min/kg
- half-life [16]: 6.7 h
- metabolised at 4 h, 1 ug/ml (in vitro [17]): < 6%
- AUC(0-inf) [18]: 2.7 µM·h
- half-life at 1 h, 1 µM (in vitro [2]): > 4.25 h
- IC50 (cells): > 30 µM
- Vd [20]: 0.7 L/kg
- fraction unbound at […], 1 ug/ml (in vitro [21]): 0.4
- Vd [22]: 0.7 L/kg
- AUC(0-inf) [23]: 3.2 µM·h
- clearance [24]: 51.3 mL/min/kg
- clearance [25]: 41 mL/min/kg
- dose excreted at 24 h [26]: 36.4%
- clearance [27]: 78.9 mL/min/kg
- Vd [28]: 5.2 L/kg
- microsomal CLint at 1 h, 1 µM (in vitro [4]): < 7 µL/min/mg
- CL free [5]: < 7 µL/min/mg
- recovery at 2 h, 20 µM (in vitro [29]): 104%
- half-life [30]: 0.62 h
- bioavailability at 24 h (in vivo): 0.81%
- recovery at 2 h, 20 µM (in vitro [31]): 97%
- half-life at 1 h, 1 µM (in vitro [6]): > 4.25 h
- microsomal CLint at 1 h, 1 µM (in vitro [7]): < 7 µL/min/mg
- CL free [8]: < 7 µL/min/mg
- Vd [32]: 3.4 L/kg
- Papp B→A at 2 h, 20 µM (in vitro [11]): 0.26 ×10⁻⁶ cm/s
- Stabilty [34]: Unstable
- solubility kinetic (physchem [9]): > 100 µg/mL
- Papp A→B at 2 h, 20 µM (in vitro [12]): 0.57 ×10⁻⁶ cm/s
SMILES: COc1ncc(-c2nc(C(=O)NC(=N)N)c(N)nc2N)cn1
- IC50 [19]: > 30 µM
- IC50 [33]: > 30 µM
